Measurements: US5591756A, “LTB4 synthesis inhibitors” (G. D. Searle & Co., priority 1995, dated 1997)

Experiments:
[1] = molecular target: T1, Human synovial fluid phospholipase A2 (HSF-PLA2) (Homo sapiens, UniProt P14555); assay: Human synovial fluid phospholipase A2 (HSF-PLA2) assay; format: biochemical; conditions: [14C]-oleate-labeled E. coli substrate, pH 7.0, 5 min pre-incubation, 37° C., 30 minutes
T1 construct: Human synovial fluid phospholipase A2 was purified approximately 5000 fold; from tissue; host or cells: human synovial fluid (enzyme purified about 5000 fold)
T1 sequence (P14555 21-144): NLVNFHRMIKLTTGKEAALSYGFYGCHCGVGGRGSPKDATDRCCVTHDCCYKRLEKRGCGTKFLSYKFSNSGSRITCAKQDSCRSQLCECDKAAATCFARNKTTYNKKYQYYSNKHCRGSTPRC
Method: Human synovial fluid phospholipase A2 was purified approximately 5000 fold following the procedures of Franson et al., Lung 160, 275-284 (1982) and Fawzy et al., Bio Phys. J. 49, 533a (1986). Following purification the enzyme activity was measured by established methodology using [^14 C]-oleate-labeled, autoclaved E. coli as the substrate as also shown in the above noted references. The assay was performed in a final volume of 100 μl containing 50 mM HEPES (pH 7.0), 150 mM NaCl, 5 mM CaCl2, 7 nM [^14 C]-oleate-labeled E. coli phospholipid and with or without the compound from one of the examples herein undergoing an assay. The compound or control vehicle was pre-incubated with the PLA2 for 5 minutes followed by addition of the E. coli substrate to initiate the reaction. The reaction was maintained at 37° C. for 30 minutes and then terminated by the addition of 2 ml tetrahydrofuran (THF). The reaction product, [^14 C]-oleic acid, was extracted using a 1 ml Bond Elut-NH2 Solid phase extraction column. The IC50 value for the compound (mean±S.E.) is given in the following Table and represents the concentration of the compound required to inhibit 50% of the PLA2 activity.

[2] = tested on: LTB4 Biosynthesis, Human PMNs; assay: LTB4 biosynthesis inhibition in human PMNs; format: cell-based; conditions: read-out: LTB4 Biosynthesis inhibition cells IC50, Human PMNs
[3] = tested on: LTB4 Biosynthesis, HL-60 cells; assay: Assay for LTB4 (and PGE2) production by HL-60 cells; format: cell-based; conditions: Homo sapiens; differentiated HL-60 cells, 10 min pre-incubation 37° C., stimulated with 5×10^-6 M calcium ionophore A23187, radioimmunoassay; read-out: LTB4 Biosynthesis inhibition cells IC50, HL60 Cells
Method: HL-60 cells were induced to differentiate into granulocytes by a 4 day incubation with 0.8% (v/v) N,N-dimethyl formamide as disclosed in Fontana et al., Proc. Natl. Acad. Sci. 78. (6): 3863-3866 (1981); Agins et al., Biochem. Biophys. Res. Comm. 126, 143-149 (1985); and Bonser et al., Biochemistry 20: 5297-5301 (1981). Prior to performing the assay, differentiated HL-60 cells were washed once with Hanks' balanced salt solution containing 0.35 mg/ml sodium bicarbonate and 10 mM HEPES pH 7.35 (HBSS). HL-60 cells (3×10^6 cells/ml) were pre-incubated with the compound tested or a control vehicle at 37° C. for 10 minutes, followed by 5 minute incubation with 5×10^-6 M calcium ionophore A23187 in a final volume of 1.0 ml. After incubation, the cells were pelleted by centrifugation and the LTB4 and PGE2 in the supernatent were quantified by radioimmunoassay. IC50 values (means±S.E.) for compounds herein that were tested are shown in the following Table and represent the concentrations of the compound required to inhibit 50% of LTB4 or PGE2 production by HL-60 cells stimulated with the calcium ionophore A23187.

Compound | IC50 [1] [nM] | IC50 [2] [nM] | IC50 [3] [nM]
CCCCCCCCCCCCCC(=O)CC(=O)c1ccc(C(=O)O)cc1 [Example 4, 4-(1,3-dioxohexadecanyl)benzoic acid] | 90000 |  | 
CCCCCCCCCCCCCC(=O)CC(=O)c1cccc(C(=O)O)c1 [Example 5, 3-(1,3-dioxohexadecanyl)benzoic acid] | 1700 | 1200 | 1500
CCCCCCCCCCCCCC(=O)CC(=O)c1ccc(C(=O)O)o1 [Example 9, 5-(1,3-dioxohexadecanyl)-2-furancarboxylic acid] | 2700 | 3500 | 4700
CCCCCCCCCCCCCC(=O)CC(=O)c1ccc(C(=O)O)s1 [Example 15, 5-(1,3-dioxohexadecyl)-2-thiophenecarboxylic acid] | 1900 | 2700 | 

Other lines, results leading:

IC50 [1] [nM] | IC50 [2] [nM] | IC50 [3] [nM] | Compound
48000 | 3000 |  | CCCCCCCCCCCCCC(=O)CC(=O)c1cccc(-c2nnn[nH]2)c1 [Example 19, 1-[3-(1H-tetrazol-5-yl)phenyl]-1,3-hexadecadione]
16000 | 2700 |  | O=C(CCCCCCCCCOc1ccccc1)CC(=O)c1ccc(C(=O)O)cc1 [Example 22, 4-(1,3-dioxo-12-phenoxydodecyl)benzoic acid]
